Test systems include ACHN renal; HS 578T breast; HT29 colon; KM12 colon; MCF7 breast; NCI-H23 lung; SN12C renal; SW-620 colon; TK-10 renal; NCI-H522 lung; SF-539 CNS.
What all share (experiment): inhibition of tumour cell growth, NCI panel, 48 h

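Grown in 96-well plates, cells were treated for 48 hours with each compound at five concentrations. Insufficient inhibition: endpoint recorded as highest concentration tested. TGI: concentration producing complete growth inhibition.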

Here are results for 23 compounds from PubChem BioAssay (NCI).

Turning to `COc1ccc(N2C(=Nc3ccccc3)SC(=N/S(=O)(=O)c3ccccc3)/C2=N\S(=O)(=O)c2ccccc2)cc1`, the TGI is 61.1 µM in the experiment with ACHN renal; 55.7 µM with HS 578T breast; 48 µM with HT29 colon; 88.7 µM with KM12 colon; 40.8 µM with MCF7 breast; 27.4 µM with NCI-H23 lung. Further, the TGI in the experiment with SN12C renal is 39.8 µM; with SW-620 colon it was more than 100 µM; in the experiment with TK-10 renal, 52.3 µM.
Regarding `CCOc1ccc(/C=C(\Cl)c2ccc(OC)c(OC)c2)cc1`, the TGI with ACHN renal was more than 100 µM; in the experiment with HT29 colon it was 40.9 µM; with NCI-H23 lung, more than 100 µM; in the experiment with NCI-H522 lung it was 74.1 µM; in the experiment with SF-539 CNS it was more than 100 µM; in the experiment on SN12C renal, more than 100 µM. For the same compound, the TGI with SW-620 colon was more than 100 µM.
In the case of `O=C(Nc1nc2ccccc2n1Cc1ccccc1)NC12CC3CC(CC(C3)C1)C2`, the TGI in the experiment on ACHN renal, in the experiment with HT29 colon, in the experiment on KM12 colon, in the experiment with NCI-H23 lung, with NCI-H522 lung and in the experiment on SF-539 CNS was more than 100 µM throughout. For the same compound, the TGI in the experiment with SN12C renal, with SW-620 colon and in the experiment on TK-10 renal was more than 100 µM throughout.
For the compound `COc1cc2c(c(OC)c1OC)-c1ccc(SC)c(=O)cc1[C@@H](OC(C)=O)CC2`, the TGI was more than 100 µM in the experiment on ACHN renal; more than 100 µM in the experiment with HS 578T breast; more than 48.5 µM in the experiment on KM12 colon; more than 100 µM with MCF7 breast; 0.194 µM in the experiment with NCI-H23 lung; more than 100 µM in the experiment on SN12C renal. The TGI in the experiment on SW-620 colon and in the experiment with TK-10 renal was more than 100 µM each time.
Regarding `O=C(O)CCCCCOc1cccnc1/C=N/NC1=NCCN1`, the TGI in the experiment on ACHN renal, in the experiment with HT29 colon, in the experiment on KM12 colon, in the experiment with NCI-H23 lung, in the experiment on NCI-H522 lung and in the experiment with SF-539 CNS was more than 100 µM each time. The TGI in the experiment with SN12C renal, in the experiment with SW-620 colon and in the experiment on TK-10 renal was more than 100 µM in each case.
With `Cc1ccc(S(=O)(=O)NC(=O)NC23CC4CC(CC(F)(C4)C2)C3)cc1`, the TGI in the experiment on ACHN renal, in the experiment with HT29 colon, in the experiment on KM12 colon, in the experiment on NCI-H23 lung, in the experiment with NCI-H522 lung and in the experiment on SF-539 CNS was more than 100 µM throughout. Moreover, the TGI with SW-620 colon and in the experiment on TK-10 renal was more than 100 µM throughout.
In the case of `CC(C)CCC[C@@H](C)[C@H]1CCC2C3CC=C4C[C@@H](Oc5c6ccccc6nc6ccccc56)CCC4C3CCC21` (stereo partly specified), the TGI in the experiment on ACHN renal, in the experiment with HS 578T breast, in the experiment on HT29 colon, in the experiment with KM12 colon, in the experiment on NCI-H23 lung and with NCI-H522 lung was more than 50 µM throughout. The TGI in the experiment with SF-539 CNS, with SN12C renal, in the experiment on SW-620 colon and in the experiment on TK-10 renal was more than 50 µM each time.
With `O=C(N=C1SCCN1C(=O)C(C(F)(F)F)C(F)(F)F)C(C(F)(F)F)C(F)(F)F`, the TGI in the experiment on ACHN renal, with HT29 colon, in the experiment on MCF7 breast, in the experiment on NCI-H23 lung, in the experiment on NCI-H522 lung and in the experiment with SF-539 CNS was more than 100 µM throughout. For the same compound, the TGI with SW-620 colon and in the experiment on TK-10 renal was more than 100 µM each time.
Turning to `N=c1nnc(=O)c2c(s1)-n1ncc(C(=O)O)c1NN2`, the TGI in the experiment with HT29 colon, with KM12 colon, in the experiment with NCI-H23 lung, in the experiment with NCI-H522 lung, with SF-539 CNS and in the experiment on SN12C renal was more than 100 µM in each case. For the same compound, the TGI in the experiment with SW-620 colon and with TK-10 renal was more than 100 µM each time.
For the compound `CCCCc1c(C(=O)OC(C)(C)C)cc(C#Cc2cc(C(=O)OC(C)(C)C)c(CCCC)c(C(=O)OC(C)(C)C)c2)cc1C(=O)OC(C)(C)C`, the TGI with ACHN renal, with KM12 colon, with MCF7 breast, in the experiment with NCI-H23 lung, with NCI-H522 lung and in the experiment on SN12C renal was more than 100 µM each time. Moreover, the TGI with TK-10 renal was more than 100 µM.
Consider `Cc1ccc(S(=O)(=O)/N=C(\NN)Nc2ccc(Cl)cc2)cc1`, for which the TGI in the experiment on ACHN renal, with HT29 colon, with KM12 colon, in the experiment on MCF7 breast, in the experiment with NCI-H23 lung and in the experiment on SF-539 CNS was more than 100 µM each time. Besides, the TGI in the experiment with SN12C renal, with SW-620 colon and in the experiment on TK-10 renal was more than 100 µM each time.
As for `O=C1/C(=C\c2cccc(Oc3ccccc3)c2)S(=O)(=O)C(c2ccccc2)N1c1ccccc1Cl` (stereo unspecified), the TGI in the experiment with ACHN renal is more than 100 µM; in the experiment with HT29 colon it was 70.3 µM; with KM12 colon it was more than 100 µM; in the experiment with MCF7 breast it was more than 100 µM; in the experiment with NCI-H23 lung, more than 100 µM; in the experiment with NCI-H522 lung, 49.1 µM. Also, the TGI is 34.3 µM in the experiment with SF-539 CNS, 72 µM with SN12C renal, more than 100 µM in the experiment on SW-620 colon and more than 100 µM with TK-10 renal.
As for `NC(=O)N/N=C/C(/C=N/NC(N)=O)[N+](=O)[O-]`, the TGI in the experiment with ACHN renal, with HT29 colon, with KM12 colon, in the experiment with NCI-H23 lung, in the experiment on NCI-H522 lung and in the experiment on SF-539 CNS was more than 100 µM throughout. In addition, the TGI in the experiment with SN12C renal, in the experiment on SW-620 colon and in the experiment with TK-10 renal was more than 100 µM in each case.
For the compound `O=C1CSc2nc3ccccc3n2/C=N\N1`, the TGI in the experiment on ACHN renal, in the experiment on HT29 colon, in the experiment with KM12 colon, with MCF7 breast, in the experiment with NCI-H23 lung and in the experiment with NCI-H522 lung was more than 100 µM in each case. The TGI in the experiment on SN12C renal, in the experiment with SW-620 colon and with TK-10 renal was more than 100 µM in each case.
`COC(=O)/C=C(\C)C(=O)N(C)c1ccccc1I`: the TGI with ACHN renal, in the experiment on KM12 colon, with MCF7 breast, in the experiment on NCI-H23 lung, in the experiment on SN12C renal and in the experiment on SW-620 colon was more than 100 µM in each case.
On to `COc1ccc(O[C@H](COCc2ccccc2)C[C@@H]2COC(C)(C)O2)cc1`, for which the TGI with ACHN renal, with HT29 colon, in the experiment on KM12 colon, in the experiment with MCF7 breast, with NCI-H23 lung and with NCI-H522 lung was more than 100 µM each time. The TGI in the experiment on SF-539 CNS, in the experiment with SN12C renal, in the experiment on SW-620 colon and in the experiment with TK-10 renal was more than 100 µM each time.
`CN(CN1C(=O)C2Cc3ccccc3CN2C1=O)c1ccccn1` (stereo unspecified): the TGI in the experiment with ACHN renal, in the experiment with KM12 colon, in the experiment with NCI-H23 lung, with NCI-H522 lung, in the experiment on SF-539 CNS and in the experiment on SN12C renal was more than 100 µM each time. For the same compound, the TGI in the experiment on SW-620 colon and with TK-10 renal was more than 100 µM each time.
As for `Cn1c(C(C#N)c2nc(Cl)ncc2Br)nc2ccccc21` (stereo unspecified), the TGI in the experiment with ACHN renal, in the experiment on HT29 colon, in the experiment with KM12 colon, in the experiment on NCI-H23 lung, in the experiment on NCI-H522 lung and with SF-539 CNS was more than 100 µM each time. Also, the TGI in the experiment on SN12C renal, with SW-620 colon and in the experiment with TK-10 renal was more than 100 µM in each case.
As to `O=C1O/C(=C(\Br)c2cccc3ccccc23)c2ccccc21`, the TGI with ACHN renal is more than 55.1 µM; in the experiment on HT29 colon it was 56.3 µM; with KM12 colon it was more than 55.2 µM; with NCI-H23 lung, more than 55.8 µM; in the experiment on NCI-H522 lung, 33 µM; in the experiment with SF-539 CNS it was more than 100 µM. Moreover, the TGI in the experiment with SN12C renal was 47.2 µM; with SW-620 colon it was more than 58.3 µM; in the experiment on TK-10 renal it was more than 51.2 µM.
With `Cc1nc2c(n1C(C)(C)C)C(=O)c1ccccc1C2=O`, the TGI in the experiment on ACHN renal, in the experiment on HT29 colon, in the experiment with KM12 colon, in the experiment on NCI-H23 lung, with NCI-H522 lung and in the experiment on SF-539 CNS was more than 100 µM each time. Moreover, the TGI in the experiment on SN12C renal, with SW-620 colon and in the experiment with TK-10 renal was more than 100 µM in each case.
In the case of `COc1ccccc1-c1cc(=O)c2ccccc2[nH]1`, the TGI in the experiment on ACHN renal, in the experiment on KM12 colon, with NCI-H23 lung, in the experiment with NCI-H522 lung, with SF-539 CNS and with SN12C renal was more than 100 µM each time. For the same compound, the TGI in the experiment with SW-620 colon and in the experiment on TK-10 renal was more than 100 µM each time.
As for `Cc1ccsc1/C=N/Nc1cc(C)c2cccc(C)c2n1`, the TGI in the experiment on ACHN renal, in the experiment on HS 578T breast, in the experiment on HT29 colon, in the experiment with KM12 colon, in the experiment with MCF7 breast and with NCI-H23 lung was more than 100 µM throughout. In addition, the TGI with SN12C renal, in the experiment on SW-620 colon and in the experiment with TK-10 renal was more than 100 µM throughout.
As to `O=c1/c(=C\c2ccccc2)sc2n1C(c1ccccc1)C1(O)CCCCC1N=2` (stereo unspecified), the TGI in the experiment on ACHN renal, in the experiment with HT29 colon, in the experiment with MCF7 breast, in the experiment with NCI-H23 lung, in the experiment on NCI-H522 lung and in the experiment with SN12C renal was more than 100 µM in each case. Further, the TGI in the experiment on SW-620 colon and in the experiment on TK-10 renal was more than 100 µM each time.
